# In patent US20240207141A1, “PEPTIDE HAVING REPARATIVE DENTIN-REGENERATING ACTIVITY AND USE THEREOF” (SEOUL NATIONAL UNIVERSITY R&DB FOUNDATION, priority 2022, published 2024):
# No end group written: not given here.
# B1: vitronectin: human plasma vitronectin purchased from Millipore, used as a positive control (protein, UniProt P04004 20-478, looked up)
# Vitronectin: DQESCKGRCTEGFNVDKKCQCDELCSYYQSCCTDYTAECKPQVTRGDVFTMPEDEYTVYDDGEEKNNATVHEQVGGPSLTSDLQAQSKGNPEQTPVLKPEEEAPAPEVGASKPEGIDSRPETLHPGRPQPPAEEELCSGKPFDAFTDLKNGSLFAFRGQYCYELDEKAVRPGYPKLIRDVWGIEGPIDAAFTRINCQGKTYLFKGSQYWRFEDGVLDPDYPRNISDGFDGIPDNVDAALALPAHSYSGRERVYFFKGKQYWEYQFQHQPSQEECEGSSLSAVFEHFAMMQRDSWEDIFELLFWGRTSAGTRQPQFISRDWHGVPGQVDAAMAGRIYISGMAPRPSLAKKQRFRHRNRKGYRSQRGHSRGRNQNSRRPSRATWLSLFSSEESNLGANNYDDYRMDWLVPATCEPIQSVFFFSGDKYYRVNLRTRRVDTVDPPYPRSIAQYWLGCPAPGHL
# Tests used:
# rat pulp exposure model = test: Rat tooth pulp exposure model, histologic analysis (H&E) of inflammatory response and hard tissue formation; format: in vivo
# Description: Seven-week-old male Sprague-Dawley rats were purchased from the OrientBio after approval from the Institutional Animal Care and Use Committee of Seoul National University (No. SNU-180109-2) was obtained. […] Resin cement (Rely X U-200, 3M ESPE, MN, USA) was used as the final restoration in all experimental groups.
# Specifically, the rats were anesthetized by the intraperitoneal injection of 31.25 mg/kg tiletamine/zolazepam and 8.75 mg/kg xylazine. After ascertaining the general anesthesia, the oral cavity was opened with a customized wire to expose the lower first molars. After cleaning and sanitizing with both 3% H2O2 and a 10% Betadine-soaked cotton, the center of the occlusal surface was carefully punctured using a #¼ round bur (0.5 mm in diameter) with a high-speed hand piece. MTA (ProRoot MTA, Dentsply Sirona, York, PA, USA) was mixed according to the manufacturer's instruction and the mixture was applied to the exposed pulp. […] The punctured sites were covered with resin cement after the application of MTA or the collagen sponge. In the Resin group, resin cement was directly applied to the punctured site. The sharp cusp tips of the upper molar and lower first molar were grinded using a football shaped diamond bur in order to prevent tooth fractures by mastication.
# Rats were histologically analyzed 2 and 4 weeks after pulp exposure surgery. Whole mandibles were fixed f in 4% paraformaldehyde at 4° ° C. for 24 hours. For histological staining, the specimens were decalcified with 12% EDTA for 4 weeks and embedded in paraffin. […] Each sample was evaluated and scored for inflammatory response and hard tissue formation according to the criteria presented in [Table 2] below.
# [1] = test system: human dental pulp cells (hDPCs); test: Cell viability assay of hDPCs (water-soluble tetrazolium salt); format: cell-based; conditions: 50, 100 and 200 μg/ml, 24 or 48 hours
# Description: Human dental pulp cells (hDPCs) were collected from the patient's third molars after patient consent and approval from the Institutional Review Board (IRB) of Seoul National University Dental Hospital (IRB No. CRI19007) were obtained. The hDPCs were passaged three times in Dulbecco's modified Eagle's medium (DMEM; Gibco BRL, Carlsbad, CA, USA) supplemented with 10% fetal bovine serum (FBS) and 1% penicillin/streptomycin (10,000 U/ml penicillin, 10,000 μg/ml streptomycin; Gibco, Paisley, Scotland). In order to induce odontogenic differentiation, the hDPCs were then cultured using DMEM supplemented with 10% FBS, 1% penicillin/streptomycin, 10 mM β-glycerophosphate, 200 μM ascorbic acid, and 0.1 μM dexamethasone.
# The viability of hDPCs in the presence of VnP-16 was investigated using an Cytox Cell Viability Assay Kit (DoGenBio, Seoul, Korea). A 96-well culture plate was treated with 50, 100 and 200 μg/ml VnP-16, and then 1.5×10^4 cells were plated into each well, and incubated for 24 or 48 hours at 37° C. The water-soluble tetrazolium salt reagent ([…] ) was added to each well, and the plate was incubated at 37 °C for 2 hours. Finally, absorbance at 450 nm was measured using a microplate reader (Epoch2, Bio-Tek, VT, USA).
# [2] = test system: human dental pulp cells (hDPCs); test: hDPCs cell attachment assay on coated plates; format: cell-based; conditions: immobilized on plates (vitronectin 0.26 μg/cm2, peptides 10.5 μg/cm2), 1 hour
# Description: First, for the cell attachment assay, 48-well culture plates were coated with human plasma vitronectin (0.26 μg/cm2) at 4° C. for 24 hours. The SP and VnP-16 (10.5 μg/cm2) were also coated on the plates by drying at room temperature for 24 hours. […] The peptide-coated plates were blocked with 1% heat-inactivated bovine serum albumin (BSA) in phosphate-buffered saline (PBS) at 37° ° C. for 1 hour, and then washed with PBS. The hDPCs (5×10^4 cells/250 μL) were added to each plate and incubated at 37° ° C. for 1 hour, and then unattached cells were removed by rinsing the plates twice with PBS. The attached cells were fixed with 10% formalin for 15 minutes and stained with 0.5% crystal violet for 1 hour. The plates were then gently washed three times with double-distilled water. Afterwards, the contents of each well were solubilized in 2% sodium dodecyl sulfate for 5 minutes, and then absorbance at 570 nm was measured using a microplate reader.
# [3] = test system: human dental pulp cells (hDPCs); test: Scratch wound migration assay; format: cell-based; conditions: vitronectin 1.25 μg/ml, VnP-16 50 μg/ml; 0, 24 and 48 hours
# Description: In order to evaluate the migration ability and wound healing ability of hDPCs, the scratch assay was used. The hDPCs were plated in a 24-well plate and incubated in complete medium until 80% confluence. Then, the cells were passaged in serum-free medium for 24 hours, and then stimulated by scratching with a 200 μl pipette tip. After PBS washing to remove cell debris, the cultures were treated with vehicle (10% DMSO), vitronectin (1.25 μg/ml), SP (50 μg/ml), or VnP-16 (50 μg/ml). Pictures were taken using a microscope (Nikon, Tokyo, Japan) at 0, 24 and 48 hours after treatment. The data were analyzed using Image Pro Plus software (version 4.5; Media Cybernetics, MD, USA) to compare the percentage of scratch closure from 0 hour to 48 hours time point. The percentage of: scratch closure was calculated by the following equation: Scratch closure %=[A (0)−A(t)/A(0)]×100. Wherein the scratch area at time zero is “A (0)”; and the area after the incubation time (t) is “A(t)”. The scratch wound migration assay was performed in triplicate.
# [4] = test system: human dental pulp cells (hDPCs); test: hDPCs cell spreading assay on coated plates; format: cell-based; conditions: immobilized on plates (vitronectin 0.26 μg/cm2, peptides 10.5 μg/cm2), 3 hours
# Description: In addition, for the cell spreading assay, hDPCs (3×10^4 cells/250 μL) were incubated at 37° ° C. for 3 hours on each peptide-coated plate in the same manner as above. The attached cells were fixed with 10% formalin and stained with 0.5% crystal violet for 1 hour. Then, the plates were gently washed three times with PBS, and then the degree of cell spreading was assessed by measuring the surface area of the cells using Image Pro Plus software (version 4.5; Media Cybernetics, Silver Spring, MD, USA).
molecule,measurement,setting,value
"FVWRQFYKYEKG [SP, scrambled peptide used as a negative control]",newly formed mineralized tissues at the pulp-exposed sites,rat pulp exposure model; 2 weeks after pulp exposure surgery,hardly detected
same,hard tissue formation,rat pulp exposure model; 4 weeks after pulp exposure surgery,showed hard tissue formation
same,quality of the reparative dentin,"rat pulp exposure model; 4 weeks after pulp exposure surgery, H&E",non-tubular and large cell-inclusion structure
RVYFFKGKQYWE-NH2 [VnP-16],cytotoxicity to hDPCs (cell viability),[1],no cytotoxicity
B1,cell attachment of hDPCs,[2],strongly promoted cell attachment and spreading
same,wound migration of hDPCs (scratch closure),[3],strongly promoted the wound migration
same,cell spreading of hDPCs,[4],strongly promoted cell attachment and spreading
